Experimental data: patent US20170296682A1, “DERIVATIVES OF DIBENZOTHIOPHENE IMAGING OF alpha-7 NICOTINIC ACETYLCHOLINE RECEPTORS” (THE JOHNS HOPKINS UNIVERSITY, priority 2015, published 2017)
“And” between values parts separate entries of the source, which are not always exact repeats. Equal values may be shown once. Read-outs that look alike come from different tables or passages of the source.

Key:
α2β4-nAChR = target: T1, α2β4-nAChR (Rattus norvegicus, UniProt P12389+P12392); experiment: Heteromeric nAChR binding assay, transfected HEK293 membranes, [3H]epibatidine; conditions: stably transfected HEK293 cells, [3H]epibatidine (0.5 nM)
T1 construct: expressed in transfected cells
T1 sequence (P12389 28-511): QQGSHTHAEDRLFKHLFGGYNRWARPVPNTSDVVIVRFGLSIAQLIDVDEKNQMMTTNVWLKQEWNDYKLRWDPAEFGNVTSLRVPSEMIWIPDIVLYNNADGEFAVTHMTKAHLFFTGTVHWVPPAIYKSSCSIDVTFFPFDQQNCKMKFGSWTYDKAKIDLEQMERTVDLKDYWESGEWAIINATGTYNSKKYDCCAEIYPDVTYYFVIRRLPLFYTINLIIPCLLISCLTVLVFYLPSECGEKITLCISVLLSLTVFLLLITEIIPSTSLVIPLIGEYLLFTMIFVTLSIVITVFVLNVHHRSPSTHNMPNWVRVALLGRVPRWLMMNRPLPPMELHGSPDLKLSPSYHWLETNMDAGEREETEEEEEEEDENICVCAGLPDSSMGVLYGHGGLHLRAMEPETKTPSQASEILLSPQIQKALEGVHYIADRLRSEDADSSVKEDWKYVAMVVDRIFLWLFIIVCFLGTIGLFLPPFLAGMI
T1 sequence (P12392 21-495): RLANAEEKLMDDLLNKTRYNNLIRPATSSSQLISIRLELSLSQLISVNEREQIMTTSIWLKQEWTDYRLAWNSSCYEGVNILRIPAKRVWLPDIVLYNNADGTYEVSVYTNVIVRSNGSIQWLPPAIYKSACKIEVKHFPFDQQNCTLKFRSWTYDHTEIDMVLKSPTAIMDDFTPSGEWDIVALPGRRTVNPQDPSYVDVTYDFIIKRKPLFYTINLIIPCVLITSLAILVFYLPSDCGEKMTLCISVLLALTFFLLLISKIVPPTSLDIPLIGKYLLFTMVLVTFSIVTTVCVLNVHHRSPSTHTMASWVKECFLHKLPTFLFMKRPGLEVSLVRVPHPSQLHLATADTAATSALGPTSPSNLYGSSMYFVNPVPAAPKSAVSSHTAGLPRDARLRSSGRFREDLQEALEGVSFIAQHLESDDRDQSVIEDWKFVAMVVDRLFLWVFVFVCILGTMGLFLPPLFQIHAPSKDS

α4β4-nAChR = target: T2, α4β4-nAChR (Rattus norvegicus, UniProt P09483+P12392); experiment: as above; conditions: stably transfected HEK293 cells, [3H]epibatidine (0.5 nM)
T2 construct: expressed in transfected cells
T2 sequence (P09483 31-630): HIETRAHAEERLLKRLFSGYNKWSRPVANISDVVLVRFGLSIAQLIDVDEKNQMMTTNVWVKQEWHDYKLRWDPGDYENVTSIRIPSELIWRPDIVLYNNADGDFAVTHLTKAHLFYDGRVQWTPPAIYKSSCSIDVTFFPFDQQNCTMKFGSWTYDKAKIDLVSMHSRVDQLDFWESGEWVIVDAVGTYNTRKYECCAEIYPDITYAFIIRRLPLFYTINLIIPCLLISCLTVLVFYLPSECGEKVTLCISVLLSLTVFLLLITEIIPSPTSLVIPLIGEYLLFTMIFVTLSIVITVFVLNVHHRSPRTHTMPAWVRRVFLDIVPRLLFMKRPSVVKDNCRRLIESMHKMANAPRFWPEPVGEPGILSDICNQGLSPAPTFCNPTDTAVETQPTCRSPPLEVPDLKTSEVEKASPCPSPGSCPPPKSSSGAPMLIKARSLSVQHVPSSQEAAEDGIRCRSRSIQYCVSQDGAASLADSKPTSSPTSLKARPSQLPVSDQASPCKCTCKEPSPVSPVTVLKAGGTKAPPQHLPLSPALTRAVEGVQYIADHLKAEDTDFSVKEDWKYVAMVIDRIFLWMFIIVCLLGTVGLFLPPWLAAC
T2 sequence (P12392 21-495): as the sequence (P12392 21-495) above

α2β2-nAChR = α2β2-nAChR (Rattus norvegicus, UniProt P12389+P12390); experiment: as above; conditions: stably transfected HEK293 cells, [3H]epibatidine (0.5 nM)
Chain of α2β2-nAChR (P12389 28-511): as the sequence (P12389 28-511) above
Chain of α2β2-nAChR (P12390 25-500): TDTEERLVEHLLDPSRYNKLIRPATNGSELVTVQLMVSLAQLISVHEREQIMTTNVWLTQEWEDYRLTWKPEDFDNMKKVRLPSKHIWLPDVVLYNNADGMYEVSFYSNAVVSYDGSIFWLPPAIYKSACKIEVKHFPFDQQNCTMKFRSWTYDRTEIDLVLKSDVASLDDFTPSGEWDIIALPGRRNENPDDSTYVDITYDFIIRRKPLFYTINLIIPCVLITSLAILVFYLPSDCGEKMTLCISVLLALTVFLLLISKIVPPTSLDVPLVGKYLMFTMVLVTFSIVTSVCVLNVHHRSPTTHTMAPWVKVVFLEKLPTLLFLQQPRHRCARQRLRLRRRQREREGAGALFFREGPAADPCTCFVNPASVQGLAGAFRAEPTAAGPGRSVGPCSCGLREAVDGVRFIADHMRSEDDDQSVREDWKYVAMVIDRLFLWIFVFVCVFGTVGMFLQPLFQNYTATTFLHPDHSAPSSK

rat a7-nAChR = rat a7-nAChR (Rattus norvegicus, UniProt Q05941); experiment: biochemical; format: binding
Chain of rat a7-nAChR (Q05941 23-502): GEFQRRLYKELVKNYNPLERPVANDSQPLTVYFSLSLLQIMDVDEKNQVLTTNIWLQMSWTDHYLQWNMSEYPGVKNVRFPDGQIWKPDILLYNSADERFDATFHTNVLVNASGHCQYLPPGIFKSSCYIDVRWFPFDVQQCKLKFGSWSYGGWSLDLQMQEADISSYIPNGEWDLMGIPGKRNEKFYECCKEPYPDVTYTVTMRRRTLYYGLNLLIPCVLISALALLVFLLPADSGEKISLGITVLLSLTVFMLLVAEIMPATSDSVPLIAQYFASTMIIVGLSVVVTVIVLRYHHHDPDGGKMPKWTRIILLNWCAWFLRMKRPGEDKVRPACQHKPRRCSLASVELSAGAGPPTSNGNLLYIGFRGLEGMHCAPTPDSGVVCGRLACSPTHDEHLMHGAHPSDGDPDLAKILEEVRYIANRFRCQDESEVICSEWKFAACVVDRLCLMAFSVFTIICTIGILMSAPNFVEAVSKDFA

α7-nAChR [1] = target: T3, α7-nAChR (Rattus norvegicus, UniProt Q05941); experiment: biochemical; format: binding
T3 sequence (Q05941 23-502): as above

Human 5-HT3 [2] = target: T4, Human 5-HT3 (Homo sapiens, UniProt P46098); experiment: 5-HT3(h) binding assay, recombinant HEK293 cells, [3H]GR65630
T4 sequence (P46098 24-478): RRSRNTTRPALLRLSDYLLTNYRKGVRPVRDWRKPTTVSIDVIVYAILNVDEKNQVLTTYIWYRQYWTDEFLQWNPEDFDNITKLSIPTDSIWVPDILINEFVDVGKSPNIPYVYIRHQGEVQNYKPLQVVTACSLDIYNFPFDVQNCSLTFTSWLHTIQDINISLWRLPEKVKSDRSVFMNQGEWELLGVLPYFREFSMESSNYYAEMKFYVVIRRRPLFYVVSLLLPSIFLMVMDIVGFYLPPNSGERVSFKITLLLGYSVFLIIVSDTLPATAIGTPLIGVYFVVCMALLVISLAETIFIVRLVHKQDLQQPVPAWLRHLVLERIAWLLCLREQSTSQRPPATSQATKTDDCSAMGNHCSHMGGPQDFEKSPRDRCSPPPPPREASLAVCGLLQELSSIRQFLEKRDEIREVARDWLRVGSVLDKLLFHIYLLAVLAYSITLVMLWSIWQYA

rat α7-nAChRs = rat α7-nAChRs (Rattus norvegicus, UniProt Q05941); format: cell-based
Chain of rat α7-nAChRs (Q05941 23-502): as the sequence (Q05941 23-502) above

α3β2-nAChR = α3β2-nAChR (Rattus norvegicus, UniProt P04757+P12390); experiment: Heteromeric nAChR binding assay, transfected HEK293 membranes, [3H]epibatidine; conditions: stably transfected HEK293 cells, [3H]epibatidine (0.5 nM)
Chain of α3β2-nAChR (P04757 26-499): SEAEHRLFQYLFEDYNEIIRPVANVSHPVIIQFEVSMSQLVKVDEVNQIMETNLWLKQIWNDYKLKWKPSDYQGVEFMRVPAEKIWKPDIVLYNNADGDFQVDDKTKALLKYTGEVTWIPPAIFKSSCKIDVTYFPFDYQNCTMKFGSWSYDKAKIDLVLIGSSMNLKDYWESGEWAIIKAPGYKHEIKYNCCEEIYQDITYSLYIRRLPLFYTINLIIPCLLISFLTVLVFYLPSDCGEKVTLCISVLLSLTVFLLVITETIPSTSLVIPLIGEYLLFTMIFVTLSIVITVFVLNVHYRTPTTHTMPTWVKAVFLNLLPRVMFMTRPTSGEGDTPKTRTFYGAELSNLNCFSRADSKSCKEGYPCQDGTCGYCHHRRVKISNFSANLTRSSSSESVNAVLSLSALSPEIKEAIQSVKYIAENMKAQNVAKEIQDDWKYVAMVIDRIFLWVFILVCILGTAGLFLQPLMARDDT
Chain of α3β2-nAChR (P12390 25-500): as the sequence (P12390 25-500) above

α4β2-nAChR = α4β2-nAChR (Rattus norvegicus, UniProt P09483+P12390); experiment: as above
Chain of α4β2-nAChR (P09483 31-630): as the sequence (P09483 31-630) above
Chain of α4β2-nAChR (P12390 25-500): as the sequence (P12390 25-500) above

α7-nAChR [3] = target: T5, α7-nAChR (Mus musculus, UniProt P49582); conditions: in vivo
T5 sequence (P49582 23-502): as the sequence (Q05941 23-502) above, with A402T counted along it

α3β4-nAChR = target: T6, α3β4-nAChR (Rattus norvegicus, UniProt P04757+P12392); experiment: Heteromeric nAChR binding assay, transfected HEK293 membranes, [3H]epibatidine; conditions: stably transfected HEK293 cells, [3H]epibatidine (0.5 nM)
T6 construct: expressed in transfected cells
T6 sequence (P04757 26-499): as the sequence (P04757 26-499) above
T6 sequence (P12392 21-495): as the sequence (P12392 21-495) above

a7-nAChR = conditions: for Mean occupancy of a7-nAChRs: baboon
[4] = format: binding; conditions: read-out: human Ki α7-nAChR
[5] = 18F-ASEM radiometabolite analysis in mice
Description: (§1) Baboon arterial blood samples were withdrawn at 5, 10, 20, 30, 60, and 90 min after ^18-FASEM injection, and plasma was analyzed by HPLC. Male CD-1 mice (25-26 g) were injected via the lateral tail veins with 37 MBq of high-specific-activity ^18-FASEM. The mice were killed by cervical dislocation at 2 and 30 min after injection, and a terminal blood sample was obtained.

[6] = male, human, in vivo
α7-nAChR [7] = target: T5, α7-nAChR; parameters: The brains were rapidly removed and dissected on ice; tissue Charles River Laboratories; host or cells: brain of live male CD-1 mice; species or system CD-1 mice; conditions: in vivo
[8] = 18F-ASEM radiometabolite analysis in baboon; conditions: baboons, 90 min after injection
Description: as §1

α7-nAChR [9] = target: T7, α7-nAChR (Homo sapiens, UniProt P36544); conditions: in vivo
T7 sequence (P36544 23-502): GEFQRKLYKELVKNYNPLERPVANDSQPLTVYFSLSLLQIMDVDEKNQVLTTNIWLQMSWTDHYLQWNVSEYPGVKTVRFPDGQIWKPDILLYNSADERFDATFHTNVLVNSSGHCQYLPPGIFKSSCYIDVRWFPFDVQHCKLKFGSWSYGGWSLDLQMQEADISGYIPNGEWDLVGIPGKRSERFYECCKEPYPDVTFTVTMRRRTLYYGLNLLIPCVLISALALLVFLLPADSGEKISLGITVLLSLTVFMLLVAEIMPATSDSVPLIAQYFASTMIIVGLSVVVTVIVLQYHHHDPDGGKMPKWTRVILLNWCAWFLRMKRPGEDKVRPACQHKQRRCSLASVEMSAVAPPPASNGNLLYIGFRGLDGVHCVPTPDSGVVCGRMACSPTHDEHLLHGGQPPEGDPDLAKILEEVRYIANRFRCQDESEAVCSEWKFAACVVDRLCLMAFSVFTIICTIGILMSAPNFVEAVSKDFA

[10] = male, CD-1, mouse, in vivo, iv
Description: as §1

α7-nAChR [11] = target: T5, α7-nAChR; parameters: studied in mice, pigs, and non-human primates as potential α7-nAChR probes; host or cells: mouse brain (cortex) in vivo; species or system mice; conditions: in vivo
Human 5-HT3 [12] = target: T4, Human 5-HT3; conditions: read-out: KD of radiotracer, 5-HT3; cited from earlier work
α7-nAChR [13] = target: T3, α7-nAChR; conditions: read-out: KD of radiotracer, α7-nAChR; cited from earlier work
α7-nAChR [14] = target: T7, α7-nAChR; conditions: read-out: Ki α7-nAChR (literature); cited from earlier work
α7-nAChR [15] = target: T5, α7-nAChR; conditions: drugs 2 mg/kg sc, 10 min before radiotracer, 90 min
α7-nAChR [16] = target: T5, α7-nAChR; parameters: The brains were rapidly removed and dissected on ice; tissue Charles River Laboratories; host or cells: brain of live male CD-1 mice; species or system CD-1 mice; conditions: in vivo; remark: listed apart in the source
[17] = male, baboon (Papio anubis), in vivo

Compound: O=S1(=O)c2cc(N3CCN4CCC3CC4)ccc2-c2cccc(F)c21 [Compound 7a, 3-(1,4-Diazabicyclo[3.2.2]nonan-4-yl)-6-fluorodibenzo[b,d]thiophene 5,5-Dioxide]
- Ki (α2β4-nAChR): 4000 nM
- Ki (α4β4-nAChR): 1000 nM
- Ki (α2β2-nAChR): > 10000 nM
- Ki (rat a7-nAChR): 0.3 nM
- Ki (α7-nAChR [1]; read-out: Ki α7-nAChR): 0.37 nM and 0.45 nM
- Ki (α7-nAChR [1]; read-out: Ki α7-nAChR (text)): 0.4 nM
- selectivity α7/5HT3 (Human 5-HT3 [2]): 561
- Ki (Human 5-HT3 [2]; Human 5-HT3 recombinant/HEK293 cells, [3H]GR65630 (0.35 nM)): 230 nM
- block of acetylcholine activation (rat α7-nAChRs): nearly completely blocked activation by acetylcholine
- Ki (α3β2-nAChR): 1000 nM
- selectivity α7/α4β2 (α4β2-nAChR): 1370
- Ki (α4β2-nAChR; stably transfected HEK293 cells, [3H]epibatidine (0.5 nM)): 562 nM
- behavioral / locomotor activity changes (α7-nAChR [3]): Neither behavioral nor locomotor activity changes were observed
- Ki (α3β4-nAChR): 709 nM

Compound: O=S1(=O)c2cc(N3CCN4CCC3CC4)ccc2-c2cccc([18F])c21 [[^18F]7a]
- Regional BPND ([VT/VND]−1) (a7-nAChR; in vivo): 3.9 to 6.6 and 3.9-6.6
- nonspecific binding (a7-nAChR; in vivo): less than 30%
- specific binding (a7-nAChR; in vivo): 80%-90%
- brain uptake (a7-nAChR; [17]): 500 % standardized uptake value [SUV]
- lowest observed VT (a7-nAChR; [17]): 14 mL/mL
- Ki (α7-nAChR [1]; Ki α7-nAChR (text)): 0.4 nM
- Ki [4]: 0.3 nM
- unchanged parent in the mouse blood ([5]; after intravenous administration): approximately 1%
- combined radiometabolites in the plasma ([5]; mice, 30 min after injection): approximately 99%
- time of plasma TAC peak [6]: ≤ 1 min
- parent metabolized ([6]; 0.5 h): 52.6±12.9%
- parent metabolized ([6]; 1.5 h): 83.5±9.7%
- Approximate BPND, Coll (α7-nAChR [7]): 8.0 and 8.0 ± 1.6
- Approximate BPND, Ctx (α7-nAChR [7]): 5.3 and 5.3 ± 1.2
- Approximate BPND, Hipp (α7-nAChR [7]): 5.5 and 5.5 ± 1.7
- BPND in control mice (α7-nAChR [7]): 8 and 5.3-8.0
- ratios of tissues to cerebellum (α7-nAChR [7]; iv): 10
- acetylcholine-induced whole-cell current restored, of baseline (rat α7-nAChRs): 60%
- combined radiometabolites in the plasma [8]: 70%
- binding potential BPND (α7-nAChR [9]): ~1
- test-retest variability (TRV) (α7-nAChR [9]): 10.8±5.1%
- VT, lower regions (α7-nAChR [9]; male, human): G15 ml/ml
- VT, relatively high regions (α7-nAChR [9]; male, human): 920 ml/ml
- peak brain uptake (α7-nAChR [9]; male, human): 400 %SUV
- time of peak brain uptake (α7-nAChR [9]; male, human): 10 to 15 min
- baseline-to-blockade ratio (α7-nAChR [3]): 13
- specific binding value (α7-nAChR [3]): 94%
- unchanged parent in the mouse brain [10]: at least 95%
- regional brain uptake in mutant DISC1 versus control mice (α7-nAChR [11]): significantly lower in all regions studied

Compound: Cc1[nH]cnc1CCC(=O)c1cn(C)c2ccccc12 [[^3H]GR65630]
- Kd (Human 5-HT3 [12]): 0.5 nM

Compound: [^125I]α-bungarotoxin
- Kd (α7-nAChR [13]): 0.7 nM

Compound: O=C(Oc1ccc(Br)cc1)N1CCN2CCC1CC2 [Compound 1, reference compound]
- Mean occupancy of a7-nAChRs (a7-nAChR; dose of 0.5 mg/kg iv, individual VND values): 38%
- Mean occupancy of a7-nAChRs (a7-nAChR; dose of 0.5 mg/kg iv, mean VND value of 2 doses): 32.9%
- Mean occupancy of a7-nAChRs (a7-nAChR; dose of 5 mg/kg iv, individual VND values): 80.5%
- Mean occupancy of a7-nAChRs (a7-nAChR; dose of 5 mg/kg iv, mean VND value of 2 doses): 94.1%
- Ki (α7-nAChR [14]): 22 nM
- effect on accumulation of [18F]7a in mouse brain (α7-nAChR [15]): reduced accumulation of radioactivity
- blockade of [18F]7a accumulation in mouse brain (α7-nAChR [16]): dose dependent blockade in all regions studied
